Source: PubChem BioAssay AID1963832 (Molecular Pharmacology Branch, DTP, NCI, 2024)

Test system: 885724-159-R-J1-PDC complex spheroid viability
Experiment: Anticancer human tumor 885724-159-R-J1-PDC patient-derived pancreatic adenocarcinoma cell line growth inhibition [POLQ]
Settings: for IC50: curve of first compound; for viability, T/C: stronger effect = lower value
How it was run: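 Complex spheroid viability model combining PDC tumour cells with endothelial (HUVEC) and MSC stromal cells. Novobiocin, ART-558 or RP6685 were tested singly and in combination with standard and investigational anticancer drugs. Each was titrated in half-log steps from near clinical Cmax, or from 10 microM where Cmax was unknown.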

[1] = second compound 0.0316 µM, first compound 0.0316 µM
[2] = second compound 0.0316 µM, first compound 0.1 µM
[3] = second compound 0.0316 µM, first compound 0.316 µM
[4] = second compound 0.0316 µM, first compound 1 µM
[5] = second compound 0.1 µM, first compound 0.0316 µM
[6] = second compound 0.1 µM, first compound 0.1 µM
[7] = second compound 0.1 µM, first compound 0.316 µM
[8] = second compound 0.1 µM, first compound 1 µM
[9] = second compound 0.316 µM, first compound 0.0316 µM
[10] = second compound 0.316 µM, first compound 0.1 µM
[11] = second compound 0.316 µM, first compound 0.316 µM
[12] = second compound 0.316 µM, first compound 1 µM
[13] = second compound 1 µM, first compound 0.0316 µM
[14] = second compound 1 µM, first compound 0.1 µM
[15] = second compound 1 µM, first compound 0.316 µM
[16] = second compound 1 µM, first compound 1 µM
[17] = second compound 3.16 µM, first compound 0.0316 µM
[18] = second compound 3.16 µM, first compound 0.1 µM
[19] = second compound 3.16 µM, first compound 0.316 µM
[20] = second compound 3.16 µM, first compound 1 µM
[21] = second compound 10 µM, first compound 0.0316 µM
[22] = second compound 10 µM, first compound 0.1 µM
[23] = second compound 10 µM, first compound 0.316 µM
[24] = second compound 10 µM, first compound 1 µM
[25] = second compound 0.0316 µM, first compound 0.00316 µM
[26] = second compound 0.0316 µM, first compound 0.01 µM
[27] = second compound 0.1 µM, first compound 0.00316 µM
[28] = second compound 0.1 µM, first compound 0.01 µM
[29] = second compound 0.316 µM, first compound 0.00316 µM
[30] = second compound 0.316 µM, first compound 0.01 µM
[31] = second compound 1 µM, first compound 0.00316 µM
[32] = second compound 1 µM, first compound 0.01 µM
[33] = second compound 3.16 µM, first compound 0.00316 µM
[34] = second compound 3.16 µM, first compound 0.01 µM
[35] = second compound 10 µM, first compound 0.00316 µM
[36] = second compound 10 µM, first compound 0.01 µM
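Note: spheroids exposed to compounds for 7 days.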

CCCS(=O)(=O)Nc1ccc(F)c(C(=O)c2c[nH]c3ncc(-c4ccc(Cl)cc4)cc23)c1F + Cc1cccc(N(C)C(=O)C2C(O)CCN2c2nc(C)cc(C(F)(F)F)c2C#N)c1
IC50 (second compound 0.0316 µM): > 10000 nM | IC50 (second compound 0.1 µM): > 10000 nM | IC50 (second compound 0.316 µM): > 10000 nM | IC50 (second compound 1 µM): > 10000 nM | IC50 (second compound 3.16 µM): > 10000 nM | IC50 (second compound 10 µM): > 10000 nM | viability, T/C [1]: 100% | viability, T/C [2]: 118% | viability, T/C [3]: 116% | viability, T/C [4]: 142% | viability, T/C (second compound 0.0316 µM, first compound 3.16 µM): 140% | viability, T/C (second compound 0.0316 µM, first compound 10 µM): 94.6% | viability, T/C [5]: 99.8% | viability, T/C [6]: 111% | viability, T/C [7]: 122% | viability, T/C [8]: 142% | viability, T/C (second compound 0.1 µM, first compound 3.16 µM): 158% | viability, T/C (second compound 0.1 µM, first compound 10 µM): 99.4% | viability, T/C [9]: 103% | viability, T/C [10]: 112% | viability, T/C [11]: 135% | viability, T/C [12]: 158% | viability, T/C (second compound 0.316 µM, first compound 3.16 µM): 158% | viability, T/C (second compound 0.316 µM, first compound 10 µM): 100% | viability, T/C [13]: 117% | viability, T/C [14]: 102% | viability, T/C [15]: 123% | viability, T/C [16]: 144% | viability, T/C (second compound 1 µM, first compound 3.16 µM): 160% | viability, T/C (second compound 1 µM, first compound 10 µM): 97.5% | viability, T/C [17]: 108% | viability, T/C [18]: 109% | viability, T/C [19]: 121% | viability, T/C [20]: 155% | viability, T/C (second compound 3.16 µM, first compound 3.16 µM): 151% | viability, T/C (second compound 3.16 µM, first compound 10 µM): 86.6% | viability, T/C [21]: 101% | viability, T/C [22]: 105% | viability, T/C [23]: 143% | viability, T/C [24]: 153% | viability, T/C (second compound 10 µM, first compound 3.16 µM): 137% | viability, T/C (second compound 10 µM, first compound 10 µM): 82.9%

CC[C@@]1(O)C(=O)OCc2c1cc1n(c2=O)Cc2cc3c(CN(C)C)c(O)ccc3nc2-1 + Cc1cccc(N(C)C(=O)C2C(O)CCN2c2nc(C)cc(C(F)(F)F)c2C#N)c1
IC50 (second compound 0.0316 µM): > 100 nM | IC50 (second compound 0.1 µM): > 100 nM | IC50 (second compound 0.316 µM): > 100 nM | IC50 (second compound 1 µM): > 100 nM | IC50 (second compound 3.16 µM): > 100 nM | IC50 (second compound 10 µM): > 100 nM | viability, T/C (second compound 0.0316 µM, first compound 0.000316 µM): 112% | viability, T/C (second compound 0.0316 µM, first compound 0.001 µM): 103% | viability, T/C [25]: 98% | viability, T/C [26]: 93.5% | viability, T/C [1]: 72% | viability, T/C [2]: 65.5% | viability, T/C (second compound 0.1 µM, first compound 0.000316 µM): 111% | viability, T/C (second compound 0.1 µM, first compound 0.001 µM): 112% | viability, T/C [27]: 93.4% | viability, T/C [28]: 93% | viability, T/C [5]: 73.2% | viability, T/C [6]: 68.1% | viability, T/C (second compound 0.316 µM, first compound 0.000316 µM): 117% | viability, T/C (second compound 0.316 µM, first compound 0.001 µM): 104% | viability, T/C [29]: 103% | viability, T/C [30]: 100% | viability, T/C [9]: 74.9% | viability, T/C [10]: 62.4% | viability, T/C (second compound 1 µM, first compound 0.000316 µM): 100% | viability, T/C (second compound 1 µM, first compound 0.001 µM): 98% | viability, T/C [31]: 99.5% | viability, T/C [32]: 94.2% | viability, T/C [13]: 81.8% | viability, T/C [14]: 61.7% | viability, T/C (second compound 3.16 µM, first compound 0.000316 µM): 108% | viability, T/C (second compound 3.16 µM, first compound 0.001 µM): 99.3% | viability, T/C [33]: 98.8% | viability, T/C [34]: 101% | viability, T/C [17]: 71.6% | viability, T/C [18]: 55.3% | viability, T/C (second compound 10 µM, first compound 0.000316 µM): 99.9% | viability, T/C (second compound 10 µM, first compound 0.001 µM): 95.3% | viability, T/C [35]: 90.5% | viability, T/C [36]: 87.6% | viability, T/C [21]: 83% | viability, T/C [22]: 63.6%

CCc1c2c(nc3ccc(O)cc13)-c1cc3c(c(=O)n1C2)COC(=O)[C@]3(O)CC + Cc1cccc(N(C)C(=O)C2C(O)CCN2c2nc(C)cc(C(F)(F)F)c2C#N)c1
IC50 (second compound 0.0316 µM): 96.3 nM | IC50 (second compound 0.1 µM): 66.8 nM | IC50 (second compound 0.316 µM): 75.2 nM | IC50 (second compound 1 µM): 58.8 nM | IC50 (second compound 3.16 µM): 53 nM | IC50 (second compound 10 µM): 56.8 nM | viability, T/C [25]: 80.9% | viability, T/C [26]: 53.6% | viability, T/C [1]: 53.3% | viability, T/C [2]: 52.6% | viability, T/C [3]: 39.9% | viability, T/C [4]: 5.13% | viability, T/C [27]: 80.6% | viability, T/C [28]: 64.4% | viability, T/C [5]: 50.5% | viability, T/C [6]: 49.4% | viability, T/C [7]: 35.3% | viability, T/C [8]: 4.47% | viability, T/C [29]: 82.7% | viability, T/C [30]: 68.3% | viability, T/C [9]: 55.5% | viability, T/C [10]: 47.4% | viability, T/C [11]: 34.5% | viability, T/C [12]: 4.66% | viability, T/C [31]: 79.6% | viability, T/C [32]: 65.8% | viability, T/C [13]: 51.8% | viability, T/C [14]: 46.8% | viability, T/C [15]: 34.5% | viability, T/C [16]: 4.77% | viability, T/C [33]: 98% | viability, T/C [34]: 62.3% | viability, T/C [17]: 51.7% | viability, T/C [18]: 50.7% | viability, T/C [19]: 28.6% | viability, T/C [20]: 4.41% | viability, T/C [35]: 80.2% | viability, T/C [36]: 64.9% | viability, T/C [21]: 52.2% | viability, T/C [22]: 46.4% | viability, T/C [23]: 30.1% | viability, T/C [24]: 4.59%
